From ChEMBL document CHEMBL4811228, “Design, Synthesis, and Activity Evaluation of Novel Acyclic Nucleosides as Potential Anticancer Agents In Vitro and In Vivo” (J Med Chem, 2021)

Assays:
HCT-116 = assay: Antiproliferative activity against human HCT-116 cells assessed as reduction in cell viability incubated for 48 hrs by MTT assay; type: functional, cell-based; settings: HCT-116, 48 h
SW480 = assay: Antiproliferative activity against human SW480 cells assessed as reduction in cell viability incubated for 48 hrs by MTT assay; type: functional, cell-based; settings: SW480, 48 h

Structure (SMILES) | IC50 (HCT-116) | IC50 (SW480)
OCCCn1cnc2c(Cl)nc(F)nc21 | 39.8 µM | 29.7 µM
CCCCCCCCC[C@H](CCOS(C)(=O)=O)n1cnc2c(Cl)ncnc21 | 9.48 µM | 9.72 µM
CCCCCCCCC[C@H](CCN=[N+]=[N-])n1cnc2c(Cl)ncnc21 | 1.19 µM | 1.22 µM
CCCCCCCC[C@@H](CCO)n1cnc2c(Cl)ncnc21 | 3.4 µM | 2.33 µM
CCCCCCC[C@@H](CCO)n1cnc2c(Cl)ncnc21 | 10.7 µM | 3.82 µM
CCCCCCC[C@H](CCO)n1cnc2c(Cl)ncnc21 | 2.67 µM | 2.93 µM
CCCCCCCC[C@H](CCO)n1cnc2c(Cl)ncnc21 | 1.12 µM | 0.32 µM
CCCCCCCCC[C@@H](CCO)n1cnc2c(Cl)ncnc21 | 1.05 µM | 3.62 µM
CCCCCCCCC[C@H](CCO)n1cnc2c(Cl)ncnc21 | 0.45 µM | 1.63 µM
CCCCCCCCC[C@H](CCOCP(=O)(OCC)OCC)n1cnc2c(Cl)ncnc21 | 10.9 µM | 5.57 µM
CCCCCCCCC[C@H](CCn1cc(-c2ccccc2)nn1)n1cnc2c(Cl)ncnc21 | 8.13 µM | 8.57 µM
CCCCCCCCC[C@H](CCCl)n1cnc2c(Cl)ncnc21 | 9.58 µM | 3.18 µM
O=C(OCC(CCO)n1cnc2c(Cl)ncnc21)c1ccccc1 (racemic) | > 50 µM | > 50 µM
CCCCCCCC(CCO)n1cnc2c(Cl)nc(F)nc21 (racemic) | 17.6 µM | 26.1 µM
CCCCCC(CCO)n1cnc2c(Cl)nc(F)nc21 (racemic) | 8.66 µM | 7.44 µM
CCCCCCCCCC(CCO)n1cnc2c(Cl)nc(F)nc21 (racemic) | 32 µM | 12.5 µM
CCCCCCC(CCO)n1cnc2c(NC)ncnc21 (racemic) | > 50 µM | > 50 µM
CCCCCC(CCO)n1cnc2c(Cl)nc(Cl)nc21 (racemic) | 6.17 µM | 6.01 µM
CC(C)(C)[Si](C)(C)OCC(CCO)n1cnc2c(Cl)ncnc21 (racemic) | > 50 µM | 31.7 µM
CCCCCCCCC(CCO)n1cnc2c(N)ncnc21 (racemic) | 11.6 µM | 20.7 µM
O=C(OCC(CCO)n1cnc2c(Cl)nc(F)nc21)c1ccccc1 (racemic) | 5.17 µM | 7.24 µM
CCCCCCCC(CCO)n1cnc2c(OC)ncnc21 (racemic) | 15.3 µM | 23.9 µM
CCCCCCCC(CCO)n1cnc2c(N)ncnc21 (racemic) | > 50 µM | > 50 µM
CCCCCC(CCO)n1cnc2c(OC)ncnc21 (racemic) | > 50 µM | > 50 µM
CCCCCCC(CCO)n1cnc2c(OC)ncnc21 (racemic) | > 50 µM | > 50 µM

Structure (SMILES) | IC50 (HCT-116) | IC50 (SW480)
OCCC(COCc1ccccc1)n1cnc2c(Cl)nc(F)nc21 (racemic) | 5.24 µM | 7.17 µM
CCCCCCCCCC(CCO)n1cnc2c(NC)ncnc21 (racemic) | 5.41 µM | 4.45 µM
CCCCCCC(CCO)n1cnc2c(Cl)ncnc21 (racemic) | 11.9 µM | 16.7 µM
CCCCCCCCCCCC(CCO)n1cnc2c(N(C)C)ncnc21 (racemic) | 12 µM | 11.8 µM
CCCCCCCCCCCC(CCO)n1cnc2c(NC)ncnc21 (racemic) | 15.4 µM | 12.8 µM
CCCCCCCCCCC(CCO)n1cnc2c(NC)ncnc21 (racemic) | 12.7 µM | 12 µM
CCCCCCCC(CCO)n1cnc2c(Cl)nc(Cl)nc21 (racemic) | 12.8 µM | 13.6 µM
CCCCCCCCCC(CCO)n1cnc2c(OC)ncnc21 (racemic) | 2.53 µM | 3.25 µM
CCC(CCO)n1cnc2c(Cl)ncnc21 (racemic) | > 50 µM | > 50 µM
CCCCCCCC(CCO)n1cnc2c(NC)ncnc21 (racemic) | 12.5 µM | 15.3 µM
CCCCCCCCCC(CCO)n1cnc2c(Cl)nc(Cl)nc21 (racemic) | 32.6 µM | 36.3 µM
CCCCCCCCC(CCO)n1cnc2c(Cl)ncnc21 (racemic) | 1.65 µM | 1.37 µM
CCCCCCCCCCC(CCO)n1cnc2c(N(C)C)ncnc21 (racemic) | 5.49 µM | 3.32 µM
CCCCCCCCCCCC(CCO)n1cnc2c(OC)ncnc21 (racemic) | 8.23 µM | 9.7 µM
CCCCCCCCCCCC(CCO)n1cnc2c(N)ncnc21 (racemic) | 13.3 µM | 11.6 µM
CC(C)(C)[Si](C)(C)OCC(CCO)n1cnc2c(Cl)nc(F)nc21 (racemic) | 7.78 µM | 8.02 µM
CCCCCCC(CCO)n1cnc2c(Cl)nc(Cl)nc21 (racemic) | 12.1 µM | 12.4 µM
OCCC(COCc1ccccc1)n1cnc2c(Cl)ncnc21 (racemic) | > 50 µM | > 50 µM
CCCCCC(CCO)n1cnc2c(NC)ncnc21 (racemic) | > 50 µM | > 50 µM
CCCCCCCCC(CCO)n1cnc2c(N(C)C)ncnc21 (racemic) | 19.8 µM | 21.6 µM
CCC(CCO)n1cnc2c(Cl)nc(F)nc21 (racemic) | 18.9 µM | 19.8 µM
CC(CCO)n1cnc2c(Cl)nc(F)nc21 (racemic) | 19.8 µM | 16.8 µM
CCCCCCCCCCC(CCO)n1cnc2c(Cl)ncnc21 (racemic) | 4.93 µM | 3.16 µM
CCCCCCC(CCO)n1cnc2c(Cl)nc(F)nc21 (racemic) | 9.96 µM | 12.9 µM
CCCCCCCCCCC(CCO)n1cnc2c(OC)ncnc21 (racemic) | 7.53 µM | 8.26 µM

Structure (SMILES) | IC50 (HCT-116) | IC50 (SW480)
CCCCC(CCO)n1cnc2c(OC)ncnc21 (racemic) | > 50 µM | > 50 µM
CCCCCC(CCO)n1cnc2c(N)ncnc21 (racemic) | > 50 µM | > 50 µM
CCCCCC(CCO)n1cnc2c(Cl)ncnc21 (racemic) | > 50 µM | > 50 µM
CCCCCCCCC(CCO)n1cnc2c(Cl)nc(F)nc21 (racemic) | 24.2 µM | 15 µM
CCCCCCCCC(CCO)n1cnc2c(Cl)nc(Cl)nc21 (racemic) | 22.2 µM | 24 µM
CCCCCCCCC(CCO)n1cnc2c(OC)ncnc21 (racemic) | 12.8 µM | 24.6 µM
CC(CCO)n1cnc2c(Cl)ncnc21 (racemic) | > 50 µM | > 50 µM
CCCCC(CCO)n1cnc2c(Cl)nc(Cl)nc21 (racemic) | 15.5 µM | 30.9 µM
CCCC(CCO)n1cnc2c(Cl)ncnc21 (racemic) | > 50 µM | > 50 µM
CCCCCCCCC(CCO)n1cnc2c(NC)ncnc21 (racemic) | 3.73 µM | 3.77 µM
CCCCCCCCCC(CCO)n1cnc2c(N)ncnc21 (racemic) | 10.5 µM | 6.03 µM
CCCCC(CCO)n1cnc2c(Cl)nc(F)nc21 (racemic) | 13.5 µM | 13.2 µM
CCCCCCC(CCO)n1cnc2c(N)ncnc21 (racemic) | > 50 µM | > 50 µM
CCCCCCC(CCO)n1cnc2c(N(C)C)ncnc21 (racemic) | > 50 µM | > 50 µM
CCCCCCCCCCCCC(CCO)n1cnc2c(Cl)ncnc21 (racemic) | > 50 µM | > 50 µM
CCCCCCCCCCCC(CCO)n1cnc2c(Cl)ncnc21 (racemic) | 7.59 µM | 5.29 µM
CCCCC(CCO)n1cnc2c(N)ncnc21 (racemic) | > 50 µM | > 50 µM
CCCCCCCCCC(CCO)n1cnc2c(N(C)C)ncnc21 (racemic) | 9.81 µM | 12.2 µM
CCCC(CCO)n1cnc2c(Cl)nc(F)nc21 (racemic) | 16.5 µM | 17.2 µM
CCCCCCCC(CCO)n1cnc2c(Cl)ncnc21 (racemic) | 4.16 µM | 3.63 µM
CCCCCCCC(CCO)n1cnc2c(N(C)C)ncnc21 (racemic) | > 50 µM | > 50 µM
CCCCC(CCO)n1cnc2c(Cl)ncnc21 (racemic) | > 50 µM | > 50 µM
CCCCCC(CCO)n1cnc2c(N(C)C)ncnc21 (racemic) | > 50 µM | > 50 µM
